Reference: patent publication US9505742B2, “3,4-dihydro-2H-isoquinoline-1-one and 2,3-dihydro-isoindol-1-one compounds” (Hoffmann-La Roche Inc., priority 2013, dated 2016)

Legend:
[1] = biological target: T1, human CYP11B2 (Homo sapiens, UniProt P19099); test: G-402 cellular enzyme assay, human CYP11B2 (aldosterone release, HTRF); type: cell-based; conditions: G-402 cells expressing human CYP11B2; 1 μM Deoxycorticosterone
T1 construct: The expression plasmids contains the ORF for either human/cyno CYP11B1 or CYP11B2; expressed in transfected cells
T1 sequence (P19099 25-503): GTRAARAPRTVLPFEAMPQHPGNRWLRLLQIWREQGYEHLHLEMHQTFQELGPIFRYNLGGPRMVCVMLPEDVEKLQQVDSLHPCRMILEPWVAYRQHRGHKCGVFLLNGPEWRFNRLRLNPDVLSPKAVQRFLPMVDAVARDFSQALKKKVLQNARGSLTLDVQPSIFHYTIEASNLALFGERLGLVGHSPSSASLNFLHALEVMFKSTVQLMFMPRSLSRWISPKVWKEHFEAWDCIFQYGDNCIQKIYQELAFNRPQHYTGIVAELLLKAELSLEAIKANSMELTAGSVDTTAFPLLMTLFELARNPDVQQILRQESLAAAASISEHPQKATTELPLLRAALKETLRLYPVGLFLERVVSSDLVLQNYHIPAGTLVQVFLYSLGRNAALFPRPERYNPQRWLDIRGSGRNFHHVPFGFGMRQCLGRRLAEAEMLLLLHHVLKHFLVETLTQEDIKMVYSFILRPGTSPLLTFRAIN
Excerpt: (§1) Herein we identified the use of the G-402 cell line as a host cell to ectopically express (transiently or stably) enzymes of the CYP11 family. Specifically we developed stable G-402 cells expressing ectopically human CYP11B1, human CYP11B2, human CYP11A1, cynmolgus CYP11B1 or cynomolgus CYP11B2 enzyme activity. Importantly the identified cell line G-402 expresses co-factors (adrenodoxin and adrenodoxin reductase) important for the activity of the CYP11 family and no relevant enzyme activity of the CYP11 family (in comparison to H295R cells) was detected in these cells. Therefore the G-402 cell line is uniquely suited as a host cell for the ectopic expression of enzymes from the CYP11 family. G-402 cells can be obtained from ATCC (CRL-1440) and were originally derived from a renal leiomyoblastoma.
(§2) The expression plasmids contains the ORF for either human/cyno CYP11B1 or CYP11B2 under the control of a suitable promoter (CMV-promoter) and a suitable resistance marker (neomycin). Using standard techniques the expression plasmid is transfected into G-402 cells and these cells are then selected for expressing the given resistance markers. Individual cell-clones are then selected and assessed for displaying the desired enzymatic activity using 11-Deoxycorticosterone (Cyp11B2) or 11-Deoxycortisol (Cyp11B) as a substrate.
(§3) G-402 cells expressing CYP11 constructs were established as described above and maintained in McCoy's 5a Medium Modified, ATCC Catalog No. 30-2007 containing 10% FCS and 400 μg/ml G418 (Geneticin) at 37° C. under an atmosphere of 5% CO2/95% air. Cellular enzyme assays were performed in DMEM/F12 medium containing 2.5% charcoal treated FCS and appropriate concentration of substrate (0.3-10 uM 11-Deoxycorticosterone, 11-Deoxycortisol or Corticosterone). For assaying enzymatic activity, cells were plated onto 96 well plates and incubated for 16 h. An aliquot of the supernatant is then transferred and analyzed for the concentration of the expected product (Aldosterone for CYP11B2; Cortisol for CYP11B1). The concentrations of these steroids can be determined using HTRF assays from CisBio analyzing either Aldosterone or Cortisol.
(§4) Inhibition of the release of produced steroids can be used as a measure of the respective enzyme inhibition by test compounds added during the cellular enzyme assay. The dose dependent inhibition of enzymatic activity by a compound is calculated by means of plotting added inhibitor concentrations (x-axes) vs. measured steroid/product level (y-axes). The inhibition is then calculated by fitting the following 4-parameter sigmoidal function (Morgan-Mercer-Flodin (MMF) model) to the raw data points using the least squares method:
(§5) [formula] wherein, A is the maximum y value, B is the EC50 factor determined using XLFit, C is the minimum y value and D is the slope value.
(§6) EC50 values for compounds claimed herein were tested with the G402-based assay system described. Cyp11B2 enzyme activity was tested in presence of 1 μM Deoxycorticosterone and variable amounts of inhibitors; Cyp11B1 enzyme activity was tested in presence of 1 μM Deoxycortisol and variable amounts of inhibitors.

[2] = biological target: T2, human CYP11B1 (Homo sapiens, UniProt P15538); test: G-402 cellular enzyme assay, human CYP11B1 (cortisol release, HTRF); type: cell-based; conditions: G-402 cells expressing human CYP11B1; 1 μM Deoxycortisol
T2 construct: The expression plasmids contains the ORF for either human/cyno CYP11B1 or CYP11B2; expressed in transfected cells
T2 sequence (P15538 25-503): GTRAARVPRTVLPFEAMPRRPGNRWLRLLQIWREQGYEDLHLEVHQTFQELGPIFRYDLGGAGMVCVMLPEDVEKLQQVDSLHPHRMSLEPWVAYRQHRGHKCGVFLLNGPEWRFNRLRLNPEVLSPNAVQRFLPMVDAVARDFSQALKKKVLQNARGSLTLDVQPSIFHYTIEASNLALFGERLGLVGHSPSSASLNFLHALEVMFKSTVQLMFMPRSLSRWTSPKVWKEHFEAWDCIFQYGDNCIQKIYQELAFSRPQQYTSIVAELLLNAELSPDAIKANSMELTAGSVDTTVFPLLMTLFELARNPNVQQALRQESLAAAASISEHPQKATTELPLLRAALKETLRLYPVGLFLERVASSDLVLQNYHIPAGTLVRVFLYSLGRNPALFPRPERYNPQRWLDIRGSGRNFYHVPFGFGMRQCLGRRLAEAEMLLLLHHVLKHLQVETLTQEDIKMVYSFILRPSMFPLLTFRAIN
Excerpt: as §1, §2, §3, §4, §5, §6

[3] = rats with experimental heart failure; cited from earlier work
[4] = rat CKD model, cited from earlier work; for plasma aldosterone: FAD286 4 weeks, spironolactone 4 and 8 weeks of treatment
[5] = biological target: CYP11B2 (Homo sapiens, UniProt P19099); conditions: patients with primary aldosteronism, cited from earlier work

| SMILES | EC50 [1] [nM] | EC50 [2] [nM] | other results |
| --- | --- | --- | --- |
| CCCS(=O)(=O)N1CC(c2cncc(N3C(=O)c4ccc(Cl)cc4C3(C)C)c2)C1 [Example 34, 5-Chloro-3,3-dimethyl-2-[5-(1-propylsulfonylazetidin-3-yl)pyridin-3-yl]isoindol-1-one] | 13 | 492 |  |
| CC1(C)c2cc(Cl)ccc2C(=O)N1c1cncc(C2CN(S(=O)(=O)C3CC3)C2)c1 [Example 35, 5-Chloro-2-[5-(1-cyclopropylsulfonylazetidin-3-yl)pyridin-3-yl]-3,3-dimethylisoindol-1-one] | 8 | 325 |  |
| Cc1ccncc1C(=O)N1CC(c2cncc(N3C(=O)c4ccc(Cl)cc4C3(C)C)c2)C1 [Example 36, 5-Chloro-3,3-dimethyl-2-[5-[1-(4-methylpyridine-3-carbonyl)azetidin-3-yl]pyridin-3-yl]isoindol-1-one] | 18 | 1400 |  |
| CCCS(=O)(=O)N1CCC(F)(c2cncc(N3C(=O)c4ccc(Cl)cc4C3(C)C)c2)CC1 [Example 37, 5-Chloro-2-[5-(4-fluoro-1-propylsulfonyl-4-piperidyl)-3-pyridyl]-3,3-dimethyl-isoindolin-1-one] | 2 | 98 |  |
| CC1(C)c2cc(Cl)ccc2C(=O)N1c1cncc(C2(F)CCN(S(=O)(=O)C3CC3)CC2)c1 [Example 38, 5-Chloro-2-[5-(1-cyclopropylsulfonyl-4-fluoro-4-piperidyl)-3-pyridyl]-3,3-dimethyl-isoindolin-1-one] | 1 | 575 |  |
| CC(C)S(=O)(=O)N1CCC(F)(c2cncc(N3C(=O)c4ccc(C#N)cc4C3(C)C)c2)CC1 [Example 39, 2-[5-(4-Fluoro-1-isopropylsulfonyl-4-piperidyl)-3-pyridyl]-3,3-dimethyl-1-oxo-isoindoline-5-carbonitrile] | 9 | 1850 |  |
| CCS(=O)(=O)N1CCC(F)(c2cncc(N3C(=O)c4ccc(OC)nc4C3(C)C)c2)CC1 [Example 40, 6-[5-(1-Ethylsulfonyl-4-fluoro-4-piperidyl)-3-pyridyl]-2-methoxy-7,7-dimethyl-pyrrolo[3,4-b]pyridin-5-one] | 19 | 2420 |  |
| COc1ccc2c(n1)C(C)(C)N(c1cncc(C3(F)CCN(C(=O)c4cnn(C)c4)CC3)c1)C2=O [Example 41, 6-[5-[4-Fluoro-1-(1-methylpyrazole-4-carbonyl)-4-piperidyl]-3-pyridyl]-2-methoxy-7,7-dimethyl-pyrrolo[3,4-b]pyridin-5-one] | 35 | 986 |  |
| COc1ccc2c(n1)C(C)(C)N(c1cncc(C3(F)CCN(S(=O)(=O)C(C)C)CC3)c1)C2=O [Example 42, 6-[5-(4-Fluoro-1-isopropylsulfonyl-4-piperidyl)-3-pyridyl]-2-methoxy-7,7-dimethyl-pyrrolo[3,4-b]pyridin-5-one] | 34 | 8070 |  |
| CCCS(=O)(=O)N1CCC(F)(c2cncc(N3C(=O)c4ccc(OC)nc4C3(C)C)c2)CC1 [Example 43, 6-[5-(4-Fluoro-1-propylsulfonyl-4-piperidyl)-3-pyridyl]-2-methoxy-7,7-dimethyl-pyrrolo[3,4-b]pyridin-5-one] | 21 | 1900 |  |
| COc1ccc2c(n1)C(C)(C)N(c1cncc(C3(F)CCN(C(=O)c4nccn4C)CC3)c1)C2=O [Example 44, 6-[5-[4-Fluoro-1-(1-methylimidazole-2-carbonyl)-4-piperidyl]-3-pyridyl]-2-methoxy-7,7-dimethyl-pyrrolo[3,4-b]pyridin-5-one] | 4 | 8 |  |
| COc1ccc2c(n1)C(C)(C)N(c1cncc(C3(F)CCN(S(=O)(=O)C4CC4)CC3)c1)C2=O [Example 45, 6-[5-(1-Cyclopropylsulfonyl-4-fluoro-4-piperidyl)-3-pyridyl]-2-methoxy-7,7-dimethyl-pyrrolo[3,4-b]pyridin-5-one] | 30 | 1250 |  |
| CCS(=O)(=O)N1CCC(c2cncc(N3C(=O)c4ccc(OC)nc4C3(C)C)c2)CC1 [Example 46, 6-[5-(1-Ethylsulfonyl-4-piperidyl)-3-pyridyl]-2-methoxy-7,7-dimethyl-pyrrolo[3,4-b]pyridin-5-one] | 23 | 1920 |  |
| COc1ccc2c(n1)C(C)(C)N(c1cncc(C3CCN(C(=O)c4cnn(C)c4)CC3)c1)C2=O [Example 47, 2-Methoxy-7,7-dimethyl-6-[5-[1-(1-methylpyrazole-4-carbonyl)-4-piperidyl]-3-pyridyl]pyrrolo[3,4-b]pyridin-5-one] | 41 | 573 |  |
| COc1ccc2c(n1)C(C)(C)N(c1cncc(C3CCN(C(=O)c4cnccc4C)CC3)c1)C2=O [Example 49, 2-Methoxy-7,7-dimethyl-6-[5-[1-(4-methylpyridine-3-carbonyl)-4-piperidyl]-3-pyridyl]pyrrolo[3,4-b]pyridin-5-one] | 151 | 1320 |  |
| N#Cc1ccc(C2CCCc3cncn32)cc1 (stereo not drawn) [FAD286] |  |  | blood pressure and cardiovascular function and structure [3]: improved; kidney function and morphology [3]: improve; plasma aldosterone [4]: reduced; angiotensin II and salt-stimulated PAI-1 mRNA expression in the aorta and the heart [4]: not; renal effects of angiotensin II and high salt (albuminuria, azotemia, renovascular hypertrophy, glomerular injury, PAI-1 and osteopontin mRNA, tubulointerstitial fibrosis) [4]: prevented these renal effects |
| N#Cc1ccc([C@H]2CCc3cncn32)c(F)c1 [LCI699] |  |  | circulating aldosterone levels ([5]; oral): significantly lower; blood pressure [5]: mildly decreased; hypokalemia [5]: corrected; selectivity / effects on the glucocorticoid axis [5]: poor selectivity |
| CC(=O)S[C@@H]1CC2=CC(=O)CC[C@]2(C)[C@H]2CC[C@@]3(C)[C@@H](CC[C@@]34CCC(=O)O4)[C@H]12 [spironolactone] |  |  | plasma aldosterone [4]: increased; angiotensin II and salt-stimulated PAI-1 mRNA expression in the aorta and the heart [4]: enhanced; renal effects of angiotensin II and high salt (albuminuria, azotemia, renovascular hypertrophy, glomerular injury, PAI-1 and osteopontin mRNA, tubulointerstitial fibrosis) [4]: prevented these renal effects |
